These results are taken from patent publication US20220339187A1, “ANTIMICROBIAL PEPTIDE-SELENIUM NANOPARTICLES” (The University of Melbourne, priority 2019, published 2022).

The test system of assay [1] is E. coli ATCC 25922. As to the kind of experiment: Membrane potential change test (BacLight, DiOC2(3)). The assay is classed as cell-based, Escherichia coli. The settings on record: 6.25 or 12.5 μg/ml (CCCP 5 μM). The method, then:
Membrane potential change was measured using a BacLight Bacterial Membrane Potential Kit (Invitrogen). The bacterial strain methicillin-sensitive S. aureus (MSSA) ATCC 29213, E. faecalis ATCC 29212, E. coli ATCC 25922 were cultured in MHB at 37° C. 50 μL of different concentrations of Se NPs, Se NP-ε-PL or pure ε-PL in PBS solution was added into each well of 96-well microplates. 50 μL MHB with 2.5×10^6 cells/mL bacteria was then added into each well. 50 μL MHB with 2.5×10^6 cells/mL bacteria was added to 50 μL PBS to act as untreated control. Carbonyl cyanide 3-chlorophenylhydrazone (CCCP) was added to untreated control at a final concentration of 5 μM to act as fully depolarized control. 3,3′-Diethyloxacarbocyanine Iodide (DiOC2(3)) was added to all wells at a final concentration of […]. […] The untreated (polarized) and CCCP-treated (fully depolarized) controls were used to determine the percentage of depolarized cells. Two independent experiments were done for this test, and two technical replicates were adopted for each independent experiment.

Assay [2] relates to methicillin-sensitive S. aureus ATCC 29213. Nature of the assay: Resistance development test. The class given is cell-based, Staphylococcus aureus. The note with it: S. aureus cultured at MBC50 concentration. The method, then:
(§1) First, one S. aureus or E. coli colony from an agar plate was inoculated into 20 mL MHB and cultured overnight at 37° C. The bacterial suspensions were diluted to 2.5×10^6 bacteria/mL. […] After every 48 h, CFU assays were performed on these bacteria, and the MBCs were calculated. The change in MBCs over the generations was plotted.

Assay [3] deals with E. coli ATCC 25922. Nature of the assay: Resistance development test. The assay is classed as cell-based, Escherichia coli. The note with it: E. coli cultured at MBC50 concentration; 312 generations tested. As to the method:
as §1

On to `N#CC(C#N)=NNc1cccc(Cl)c1` [CCCP, Carbonyl cyanide 3-chlorophenylhydrazone], for which, in the assay with E. coli ATCC 25922 [1], the “depolarisation of cell membrane” value is “minimal activity”. Turning to `NC[C@H]1O[C@H](O[C@H]2[C@H](O)[C@@H](O[C@H]3O[C@H](CO)[C@@H](O)[C@H](N)[C@H]3O)[C@H](N)C[C@@H]2N)[C@H](O)[C@@H](O)[C@@H]1O` [kanamycin], the figures for the “generations after which resistance started to develop (rise of MBC)” value (in assay [2]; in the assay on E. coli ATCC 25922 [3]) were 44 generations and 52 generations, respectively.
